From patent US10155021B2, “Antimicrobial 4-oxoquinolizines” (Emergent Product Development Gaithersburg Inc., priority 2011, dated 2018)
Values after ≈ are worked out from the molar mass of the structure shown.

Assays:
B. thailandensis E264 = test: microbe, parasite or virus in culture; assay type: cell-based, Burkholderia thailandensis; settings: Burkholderia thailandensis, E264, read-out: MIC B. thailandensis E264
E. coli ATCC 25922 = test: MIC, selected panel of Gram-positive and Gram-negative strains (Example 5); assay type: cell-based, Escherichia coli; settings: Escherichia coli, ATCC25922, read-out: MIC E. coli ATCC 25922
P. aeruginosa ATCC 27853 = test: as above; assay type: cell-based; settings: Pseudomonas aeruginosa, ATCC27853, read-out: MIC P. aeruginosa ATCC 27853
A. baumannii ATCC 19606 = test: as above; assay type: cell-based, Acinetobacter baumannii; settings: Acinetobacter baumannii, ATCC19606, read-out: MIC A. baumannii ATCC 19606
S. aureus ATCC 25923 = test: as above; assay type: cell-based; settings: Staphylococcus aureus, ATCC25923, read-out: MIC S. aureus ATCC 25923
[1] = tested on: S. aureus ATCC 43300 (MRSA, FQ-S); test: as above; assay type: cell-based, Staphylococcus aureus; settings: Staphylococcus aureus, read-out: MIC S. aureus ATCC 43300 (MRSA, FQ-S)
[2] = tested on: S. aureus BAA-1556 (USA300-Type MRSA, FQ-R); test: as above; assay type: cell-based, Staphylococcus aureus; settings: Staphylococcus aureus, read-out: MIC S. aureus BAA-1556 (USA300-Type MRSA, FQ-R)
B. thailandensis = test: microbe, parasite or virus in culture; assay type: cell-based, Burkholderia thailandensis
[3] = tested on: resistant strains of A. baumannii and one strain of Acinetobacter sp.; test: MIC without and with sub-inhibitory polymyxin B, whole panel / MIC ranges (Example 4; also strains not listed separately); assay type: cell-based; settings: A. baumannii A14; ratio, PB 0.06 μg/ml; 1st experiment
A. baumannii A387 = test: MIC without and with sub-inhibitory polymyxin B (Example 4); assay type: cell-based, Acinetobacter baumannii; settings: A. baumannii A387; +0.06 μg/ml polymyxin B; 1st experiment

| Compound | MIC (B. thailandensis E264) | MIC (E. coli ATCC 25922) | MIC (P. aeruginosa ATCC 27853) | MIC (A. baumannii ATCC 19606) | MIC (S. aureus ATCC 25923) | MIC [1] | MIC [2] | Dilutions improvement shift on B. thailandensis MIC90 (between pH 7 and pH 5) (B. thailandensis; pH 7 versus pH 5) | MIC without PB/MIC + PB [3] | MIC +0.06 μg/ml PB (A. baumannii A387) | MIC90 (B. thailandensis; Burkholderia thailandensis, read-out: MIC90 B. thailandensis) |
| --- | --- | --- | --- | --- | --- | --- | --- | --- | --- | --- | --- |
| Cc1c(-c2ccc3[nH]cnc3c2)ccn2c(=O)c(C(=O)[O-])cc(C3CC3)c12.[K+] [Compound 74K salt, potassium 8-(1H-benzo[d]imidazol-5-yl)-1-cyclopropyl-9-methyl-4-oxo-4H-quinolizine-3-carboxylate] | 2 µg/mL | 0.064 to 0.125 µg/mL | 8 µg/mL | 0.5 µg/mL | 0.016 µg/mL | 0.016 µg/mL | 0.5 µg/mL | – | – | – | – |
| 8-[(3S)-3-aminocyclopentyl]-1- cyclopropyl-7-fluoro-9-methyl- 4-oxo-quinolizine-3-carboxylic acid [Compound 10] | – | – | – | – | – | – | – | Yes, 2× | 1 | 0.5 µg/mL | – |
| Cc1c(-c2ccc(CN)o2)ccn2c(=O)c(C(=O)O)cc(C3CC3)c12 [Compound 12] | – | – | – | – | – | – | – | – | – | – | 0.39 µg/mL (≈ 1.15 µM) |
| Cc1c(-c2ccc(N)c(CN)c2)ccn2c(=O)c(C(=O)[O-])cc(C3CC3)c12.[K+] [Compound 76K salt, potassium 8-(4-amino-3-(aminomethyl)phenyl)-1-cyclopropyl-9-methyl-4-oxo-4H-quinolizine-3-carboxylate] | 2 µg/mL | 0.032 µg/mL | 1 µg/mL | 0.25 µg/mL | 0.016 µg/mL | 0.008 to 0.016 µg/mL | 0.25 µg/mL | – | – | – | – |
| Cc1c(-c2ccncc2F)ccn2c(=O)c(C(=O)[O-])cc(C3CC3)c12.[K+] [Compound 58K salt, potassium 8-(3-fluoropyridin-4-yl)-1-cyclopropyl-9-methyl-4-oxo-4H-quinolizine-3-carboxylate] | 1 µg/mL | 0.25 µg/mL | > 8 µg/mL | 1 µg/mL | 0.064 µg/mL | 0.064 µg/mL | 1 to 2 µg/mL | – | – | – | – |
| Cc1c(-c2ccc3[nH]ncc3c2)c(F)cn2c(=O)c(C(=O)[O-])cc(C3CC3)c12.[K+] [Compound 75K salt, potassium 8-(1H-indazol-5-yl)-1-cyclopropyl-7-fluoro-9-methyl-4-oxo-4H-quinolizine-3-carboxylate] | 0.25 µg/mL | 0.032 µg/mL | 1 µg/mL | 0.064 µg/mL | ≤ 0.004 µg/mL | ≤ 0.004 µg/mL | 0.032 µg/mL | – | – | – | – |
